Measurements reported in the NIST ThermoML archive (doi:10.1016/j.fluid.2018.12.005).
Several values for one entry are separate records, joined by “and”; a condition that tells them apart may be missing. Identical values can stand only once. ± gives the expanded uncertainty stated by the source.

Legend:
[1] = Liquid; for vapor or sublimation pressure: Closed cell (Static) method; for mass density: 298.15 K, 101.33 kPa, Vibrating tube method
[2] = refractive index (Na D-line) (dimensionless); conditions: 298.15 K; 101.33 kPa; Liquid; Standard Abbe refractometry

vapor or sublimation pressure ([1]; 283.14 K) [kPa] | vapor or sublimation pressure ([1]; 283.16 K) [kPa] | vapor or sublimation pressure ([1]; 293.14 K) [kPa] | vapor or sublimation pressure ([1]; 293.15 K) [kPa] | mass density [1] | vapor or sublimation pressure ([1]; 303.12 K) [kPa] | vapor or sublimation pressure ([1]; 303.15 K) [kPa] | vapor or sublimation pressure ([1]; 313.13 K) [kPa] | vapor or sublimation pressure ([1]; 313.2 K) [kPa] | vapor or sublimation pressure ([1]; 323.13 K) [kPa] | vapor or sublimation pressure ([1]; 323.17 K) [kPa] | refractive index [2] | vapor or sublimation pressure ([1]; 283.15 K) [kPa] | vapor or sublimation pressure ([1]; 313.15 K) [kPa] | vapor or sublimation pressure ([1]; 323.16 K) [kPa] | Compound
14.6 ± 0.2 | 14.4 ± 0.2 | 23.5 ± 0.3 | 23.4 ± 0.3 | 1701 ± 7 kg/m3 and 1670 ± 2 kg/m3 | 36.2 ± 0.3 | 36.3 ± 0.3 | 54.1 ± 0.4 | 54.4 ± 0.4 | 78.8 ± 0.5 | 78.9 ± 0.4 | 1.251 ± 0.002 and 1.253 ± 0.002 |  |  |  | FC(F)(F)C(F)(F)C(F)(F)C(F)(F)C(F)(F)C(F)(F)F [perfluorohexane]
 |  |  |  | 655 ± 2 kg/m3 |  |  |  |  |  |  | 1.375 ± 0.002 |  |  |  | CCCCCC [hexane]
 |  |  | 2.72 ± 0.2 | 1755 ± 2 kg/m3 |  | 4.72 ± 0.2 |  |  |  |  | 1.268 ± 0.002 | 1.51 ± 0.2 | 7.86 ± 0.21 | 12.6 ± 0.21 | FC(F)(F)C(F)(F)C(F)(F)C(F)(F)C(F)(F)C(F)(F)C(F)(F)C(F)(F)F [octadecafluorooctane]
